experiment: Binding affinity to beta cyclodextrin

| Structure (SMILES) | log Ks |
| --- | --- |
| O=C1CN=C(c2ccccc2)c2cc([N+](=O)[O-])ccc2N1 [NITRAZEPAM] | 1.97 |
| Cc1cccc(N(C)C(=S)Oc2ccc3ccccc3c2)c1 [TOLNAFTATE] | 3.83 |
| c1ccc2c(c1)[nH]c1ccccc12 [CARBAZOLE] | 2.44 |
| C[C@]12C=CC(=O)C=C1CC[C@@H]1[C@@H]2[C@@H](O)C[C@@]2(C)[C@H]1CC[C@]2(O)C(=O)CO [PREDNISOLONE] | 3.56 |
| CC(C)CO [ISOBUTANOL] | 1.62 |
| c1ccc2ncccc2c1 [QUINOLINE] | 2.12 |
| CCNc1ccccc1 | 2.34 |
| c1ccc2c(c1)Nc1ccccc1S2 [PHENOTHIAZINE] | 2.73 |
| CCOc1cccc(O)c1 [1-hydroxy-3-ethoxybenzene] | 2.35 |
| CC(C)c1ccc(O)cc1 | 3.58 |
| CCC(C)O (configuration not stated) [BUTANOL] | 1.19 |
| CCCCc1cccc(O)c1 | 3.76 |
| CC(=O)Oc1ccc(C(C)(C)C)cc1 | 3.85 |
| Cc1cccc(O)c1 [METACRESOL] | 1.98 |
| OC[C@H](O)COCc1ccccc1 | 2.11 |
| CCC(C)(O)CC | 2.15 |
| Oc1cccc(I)c1 | 2.93 |
| c1ccc2c(c1)sc1ccccc12 [DIBENZOTHIOPHENE] | 3.48 |
| C[C@@H]1C[C@H]2[C@@H]3CCC4=CC(=O)C=C[C@]4(C)[C@@]3(F)[C@@H](O)C[C@]2(C)[C@@]1(O)C(=O)CO [DEXAMETHASONE] | 3.65 |
| ClC(Cl)Cl [CHLOROFORM] | 1.43 |
| OCCc1ccccc1 [PHENYLETHYL ALCOHOL] | 2.15 |
| O=Cc1ccccc1 [BENZALDEHYDE] | 1.78 |
| O=Cc1ccc(O)cc1 [4-HYDROXYBENZALDEHYDE] | 1.75 |
| CCCC(C)C1(CC)C(=O)NC(=O)NC1=O (configuration not stated) [PENTOBARBITAL] | 3.01 |
| Oc1ccccc1 [PHENOL] | 1.98 |
| Brc1ccc(Br)cc1 | 2.97 |

| Structure (SMILES) | log Ks |
| --- | --- |
| c1ccc2nc3ccccc3nc2c1 [PHENAZINE] | 2.41 |
| CC(C(=O)O)c1cccc(C(=O)c2ccccc2)c1 (configuration not stated) [KETOPROFEN] | 2.85 |
| c1ccc2c(c1)Cc1ccccc1O2 [XANTHENE] | 2.71 |
| CC(=O)Oc1cccc(C(C)C)c1 | 3.36 |
| CC(=O)Oc1cccc(C)c1 | 2.21 |
| C[C@]12C=CC(=O)C=C1CC[C@H]1[C@@H]3C[C@@H](O)[C@](O)(C(=O)CO)[C@@]3(C)C[C@H](O)[C@@]12F [TRIAMCINOLONE] | 3.37 |
| CCOC(=O)c1ccc(N)cc1 [BENZOCAINE] | 2.69 |
| Oc1ccc(Cl)cc1 [PARACHLOROPHENOL] | 2.61 |
| Oc1cccc(F)c1 | 1.7 |
| CCc1cccc(O)c1 | 2.6 |
| OC1CCCC1 [CYCLOPENTANOL] | 2.08 |
| Ic1ccccc1 [IODOBENZENE] | 2.93 |
| CCC(=O)c1cccc(O)c1 | 2.61 |
| OC1CCC1 [CYCLOBUTANOL] | 1.18 |
| Ic1ccc(I)cc1 | 3.17 |
| O=C(O)/C=C/c1ccc(O)cc1 [COUMARIC ACID] | 2.83 |
| CCC1(CC)C(=O)NC(=O)NC1=O [BARBITAL] | 1.78 |
| Oc1ccc(O)cc1 [HYDROQUINONE] | 2.05 |
| Cc1ccc(/C=C/C(=O)O)cc1 | 2.65 |
| CC1(C)O[C@@H]2C[C@H]3[C@@H]4C[C@H](F)C5=CC(=O)C=C[C@]5(C)[C@@]4(F)[C@@H](O)C[C@]3(C)[C@]2(C(=O)CO)O1 [FLUOCINOLONE ACETONIDE] | 3.48 |
| COc1cccc(O)c1 [1-hydroxy-3-methoxybenzene] | 2.11 |
| COc1ccccc1 [ANISOLE] | 2.32 |
| O=C(O)c1ccccc1 [BENZOIC ACID] | 2.12 |
| CCCCC[C@H](O)/C=C/[C@@H]1[C@H]2C/C(=C/CCCC(=O)O)O[C@H]2C[C@H]1O [EPOPROSTENOL] | 2.94 |
| CCC1(CCC(C)C)C(=O)NC(=O)NC1=O [AMOBARBITAL] | 3.07 |
| NS(=O)(=O)c1cc2c(cc1C(F)(F)F)NC(Cc1ccccc1)NS2(=O)=O (configuration not stated) [BENDROFLUMETHIAZIDE] | 1.9 |

| Structure (SMILES) | log Ks |
| --- | --- |
| CC1=CC(=O)c2ccccc2C1=O [MENADIONE] | 2.27 |
| CN1C(=O)CN=C(c2ccccc2)c2cc([N+](=O)[O-])ccc21 [NIMETAZEPAM] | 1.73 |
| COc1cc(NS(=O)(=O)c2ccc(N)cc2)nc(OC)n1 [SULFADIMETHOXINE] | 2.26 |
| CCCCC(C)O (configuration not stated) [2-HEXANOL] | 1.98 |
| OCCCCO [1,4-BUTANEDIOL] | 0.64 |
| CCC(C)(C)c1ccc(O)cc1 | 4.7 |
| CCC(O)CC [3-PENTANOL] | 1.35 |
| O=[N+]([O-])c1ccc(O)cc1 [P-NITROPHENOL] | 2.39 |
| CC(C)(C)c1cccc(O)c1 | 4.41 |
| CC(=O)S[C@@H]1CC2=CC(=O)CC[C@]2(C)[C@H]2CC[C@@]3(C)[C@@H](CC[C@@]34CCC(=O)O4)[C@H]12 [SPIRONOLACTONE] | 4.44 |
| COc1cc(NS(=O)(=O)c2ccc(N)cc2)nc(C)n1 [SULFAMETOMIDINE] | 2.33 |
| Oc1ccc(I)cc1 | 2.98 |
| CC(=O)OCC(=O)[C@@]1(O)CC[C@H]2[C@@H]3CCC4=CC(=O)CC[C@]4(C)[C@H]3[C@@H](O)C[C@@]21C [HYDROCORTISONE ACETATE] | 3.51 |
| CCCC(C)(C)O | 1.99 |
| CCC(C)c1cccc(O)c1 (configuration not stated) | 4.06 |
| CC(=O)Oc1cccc(Cl)c1 | 2.44 |
| Oc1cc(Cl)cc(Cl)c1 | 2.07 |
| CCCCCCC(C)O (configuration not stated) | 3.13 |
| COc1cc(NS(=O)(=O)c2ccc(N)cc2)ncn1 [SULFAMONOMETHOXINE] | 2.48 |
| C#Cc1ccccc1 | 2.36 |
| OCCO [ETHYLENE GLYCOL] | -0.19 |
| O=C(O)c1ccc([N+](=O)[O-])cc1 [4-NITROBENZOIC ACID] | 2.34 |
| NC(=O)CCC/N=C(\c1ccc(Cl)cc1)c1cc(F)ccc1O [PROGABIDE] | 2.53 |
| CCCCc1ccc(O)cc1 | 3.97 |
| CCc1cccc(OC(C)=O)c1 | 2.68 |
| c1ccc2scnc2c1 [BENZO[D]THIAZOLE] | 2.38 |

| Structure (SMILES) | log Ks |
| --- | --- |
| OC1CCCCCCC1 [CYCLOOCTANOL] | 3.3 |
| CC(C)(C)CO | 2.71 |
| CCCCOC(=O)c1ccc(O)cc1 [BUTYLPARABEN] | 3.39 |
| CCC(C)c1ccc(O)cc1 (configuration not stated) | 4.18 |
| OC1CCCCC1 [CYCLOHEXANOL] | 2.67 |
| CCCCCCCCO [OCTANOL] | 3.17 |
| Cc1ccc(C)cc1 [P-XYLENE] | 2.38 |
| CC=O | -0.64 |
| CC(C)CC(C)O (configuration not stated) | 2.04 |
| CCOc1ccc(OC(C)=O)cc1 | 2.54 |
| CCNCC [DIETHYLAMINE] | 1.36 |
| CCCCCc1ccc(O)cc1 | 4.19 |
| CC(=O)c1ccccc1 [ACETOPHENONE] | 2.27 |
| CNc1ccccc1 | 2.12 |
| c1ccc2c(c1)oc1ccccc12 [DIBENZOFURAN] | 2.97 |
| CC(C(=O)O)c1ccc(-c2ccccc2)c(F)c1 (configuration not stated) [FLURBIPROFEN] | 3.69 |
| CCCCCc1ccc(OC(C)=O)cc1 | 3.8 |
| CCC1(c2ccccc2)C(=O)NC(=O)N(C)C1=O (configuration not stated) [MEPHOBARBITAL] | 3.16 |
| Brc1ccccc1 [BROMOBENZENE] | 2.5 |
| CC(=O)Oc1ccc(Cl)cc1 | 2.5 |
| C[C@@H]1C[C@H]2[C@@H]3C[C@H](F)C4=CC(=O)C=C[C@]4(C)[C@H]3[C@@H](O)C[C@]2(C)[C@@]1(O)C(=O)CO [PARAMETHASONE] | 3.4 |
| CC(=O)c1cccc(O)c1 | 2.06 |
| CC(=O)OCC(=O)[C@@]1(O)CC[C@H]2[C@@H]3CCC4=CC(=O)C=C[C@]4(C)[C@H]3[C@@H](O)C[C@@]21C [PREDNISOLONE ACETATE] | 3.76 |
| CCc1ccc(OC(C)=O)cc1 | 2.83 |
| COc1ccc(OC(C)=O)cc1 | 2.45 |
| CN1C(=O)CN=C(c2ccccc2F)c2cc(Cl)ccc21 [FLUDIAZEPAM] | 2.33 |

| Structure (SMILES) | log Ks |
| --- | --- |
| CC(=O)OCC(=O)[C@@]1(O)CC[C@H]2[C@@H]3CCC4=CC(=O)CC[C@]4(C)[C@H]3C(=O)C[C@@]21C [CORTISONE ACETATE] | 3.62 |
| CCCc1ccc(O)cc1 | 3.55 |
| CN1C(=O)NC(=O)C(C)(C2=CCCCC2)C1=O (configuration not stated) [HEXOBARBITAL] | 3.08 |
| C(=C\c1ccccc1)/CN1CCN(C(c2ccccc2)c2ccccc2)CC1 [CINNARIZINE] | 3.64 |
| C[C@]12CCC(=O)C=C1CC[C@@H]1[C@@H]2C(=O)C[C@@]2(C)[C@H]1CC[C@]2(O)C(=O)CO [CORTISONE] | 3.35 |
| Fc1ccccc1 [FLUOROBENZENE] | 1.96 |
| O=C(O)Cc1ccccc1 [PHENYLACETIC ACID] | 2.1 |
| c1ccccc1 [BENZENE] | 2.23 |
| CC(=O)c1ccc(O)cc1 [4-HYDROXYACETOPHENONE] | 2.18 |
| Oc1cccc(Br)c1 | 2.51 |
| OCc1ccc(O)cc1 [PARAHYDROXYBENZYL ALCOHOL] | 2.16 |
| CCOC(=O)c1ccc(O)cc1 [ETHYLPARABEN] | 3.01 |
| c1ccc2c(c1)Sc1ccccc1S2 | 3.57 |
| COc1ccc(O)cc1 [MEQUINOL] | 2.21 |
| OCCCCCCO [1,6-HEXANEDIOL] | 1.69 |
| CCCCc1ccc(OC(C)=O)cc1 | 3.62 |
| COC(=O)c1ccccc1 [METHYL BENZOATE] | 2.5 |
| C[C@H](CCC(=O)O)[C@H]1CC[C@H]2[C@@H]3C(=O)C[C@@H]4CC(=O)CC[C@]4(C)[C@H]3CC(=O)[C@]12C [DEHYDROCHOLIC ACID] | 3.38 |
| C[C@H](CCC(=O)O)[C@H]1CC[C@H]2[C@@H]3[C@H](O)C[C@@H]4C[C@H](O)CC[C@]4(C)[C@H]3CC[C@]12C [CHENODIOL] | 4.36 |
| CC(=O)Oc1ccc(C(C)C)cc1 | 2.88 |
| ClC(Cl)(Cl)Cl [CARBON TETRACHLORIDE] | 2.2 |
| CCCCCO [1-PENTANOL] | 1.8 |
| CCc1ccccc1 [ETHYLBENZENE] | 2.59 |
